# According to ChEMBL document CHEMBL5247624, “N-sulfonylpiperidinedispiro-1,2,4,5-tetraoxanes exhibit potent in vitro antiplasmodial activity and in vivo efficacy in mice infected with P. berghei ANKA” (Eur J Med Chem, 2022):
# Active and inactive are the calls of the source. No cut-off for these calls is given here.
# Columns and labels:
# Plasmodium falciparum [1] = assay: Antiplasmodial activity against erythrocytic stage of chloroquine-sensitive Plasmodium falciparum 3D7 infected in human RBC assessed as increase in intracellular ROS level by measuring green fluorescence at 10 uM incubated for 3 hrs by H2DCFDA probe based fluorescence microscopic analysis; type: functional, organism-based; conditions: Erythrocyte
# Plasmodium berghei [2] = assay: Antiplasmodial activity against Plasmodium berghei ANKA infected in Swiss albino mouse assessed as partial cure by measuring parasitemia at 60 mg/kg/day,ip qd measured after 48 hrs post administration by Giemsa staining assay; type: functional, organism-based
# Huh-7 = assay: Cytotoxicity against human Huh-7 cells assessed as reduction in cell viability incubated for 72 hrs by MTT assay; type: functional
# Plasmodium falciparum [3] = assay: Antiplasmodial activity against erythrocytic stage of chloroquine-sensitive Plasmodium falciparum 3D7 assessed as inhibition of parasite growth incubated for 3 days by HRP2-ELISA assay; type: functional, organism-based; conditions: 3D7, 72 h
# Plasmodium falciparum [4] = assay: Antiplasmodial activity against erythrocytic stage of chloroquine-sensitive Plasmodium falciparum 3D7 infected in human RBC assessed as increase in intracellular ROS level at 10 uM incubated for 3 hrs by H2DCFDA probe based flow cytometry; type: functional, organism-based; conditions: Erythrocyte
# Plasmodium berghei [5] = assay: Antiplasmodial activity against Plasmodium berghei ANKA infected in Swiss albino mouse assessed as parasite recrudescence by measuring parasitemia at 60 mg/kg/day,ip qd administrated for 4 subsequent days by Giemsa staining assay; type: functional
# Plasmodium berghei [6] = assay: Antiplasmodial activity against Plasmodium berghei ANKA infected in Swiss albino mouse assessed as reduction of parasitaemia at 60 mg/kg/day,ip qd measured after 72 hrs post administration by Giemsa staining assay; type: functional, organism-based
# Plasmodium berghei [7] = assay: Antiplasmodial activity against Plasmodium berghei ANKA infected in Swiss albino mouse assessed as reduction of parasitaemia at 60 mg/kg/day,ip qd administrated for 5 subsequent days by Giemsa staining assay relative to control; type: functional; design: scale not given: the % may be the effect or the level left
# Plasmodium berghei [8] = assay: Antiplasmodial activity against Plasmodium berghei ANKA infected in Swiss albino mouse assessed as reduction of parasitaemia at 60 mg/kg/day,ip qd measured at 24 hrs post administration by Giemsa staining assay relative to control; type: functional; design: scale not given: the % may be the effect or the level left
# Plasmodium berghei [9] = assay: Antiplasmodial activity against Plasmodium berghei ANKA infected in Swiss albino mouse assessed as increase in parasite clearance rate at 60 mg/kg/day,ip qd administrated for 5 subsequent days by Giemsa staining assay; type: functional, organism-based
# Plasmodium berghei [10] = assay: Antiplasmodial activity against Plasmodium berghei ANKA infected in Swiss albino mouse assessed as reduction of parasitaemia at 60 mg/kg/day,ip qd measured after 72 hrs post administration by Giemsa staining assay relative to control; type: functional; design: scale not given: the % may be the effect or the level left
# Plasmodium berghei [11] = assay: Antiplasmodial activity against Plasmodium berghei ANKA infected in Swiss albino mouse assessed as increase in animal survival rate at 60 mg/kg/day,ip qd administrated for 5 subsequent days; type: functional, organism-based
# Plasmodium falciparum [12] = assay: Antiplasmodial activity against Plasmodium falciparum W2 infected in human RBC assessed as inhibition of parasite growth incubated for 48 hrs by flow cytometry; type: functional, organism-based; conditions: W2, Erythrocyte
# Plasmodium berghei [13] = assay: Antiplasmodial activity against Plasmodium berghei infected in Swiss Webster mouse assessed as reduction of parasitaemia by measuring partial cure at 2 mg/kg/day,po administrated for 4 days; type: functional; design: scale not given: the % may be the effect or the level left; conditions: time 4 day
SMILES,CC50 (Huh-7) [µg/mL],IC50 (Plasmodium falciparum [3]) [nM],further results
O=S(=O)(c1ccc(Br)cc1F)N1CCC2(CC1)OOC1(CCCCCC1)OO2,> 100,10.4,Activity (Plasmodium falciparum [1]): Active; Activity (Plasmodium berghei [2]): inactive; Activity (Plasmodium falciparum [4]): Active; Activity (Plasmodium berghei [5]): >0.1%
CCS(=O)(=O)N1CCC2(CC1)OOC1(CCCCC1)OO2,> 100,10.5,Activity (Plasmodium falciparum [1]): Active; Activity (Plasmodium berghei [6]): Active; Activity (Plasmodium berghei [2]): inactive; Activity (Plasmodium falciparum [4]): Active; Activity (Plasmodium berghei [5]): >0.1%; Activity (Plasmodium berghei [7]): 100%
CCS(=O)(=O)N1CCC2(CC1)OOC1(CCCC1)OO2,> 100,11.8,
O=S(=O)(c1ccc(F)cc1)N1CCC2(CC1)OOC1(CCCCC1)OO2,> 100,77.4,
CCCS(=O)(=O)N1CCC2(CC1)OOC(C)(C)OO2,> 100,101,
COc1ccc(S(=O)(=O)N2CCC3(CC2)OOC2(CCCCC2)OO3)cc1,> 100,32.2,
CCN(CC)CCCC(C)Nc1ccnc2cc(Cl)ccc12 (stereo not drawn) [CHLOROQUINE],> 100,4.36,Activity (Plasmodium berghei [8]): 100%
CCCCS(=O)(=O)N1CCC2(CC1)OOC1(CCCC1)OO2,> 100,41.9,
CCCCS(=O)(=O)N1CCC2(CC1)OOC1(CCCCC1)OO2,> 100,57.2,
CS(=O)(=O)N1CCC2(CC1)OOC1(CCCCCC1)OO2,> 100,9.67,Activity (Plasmodium falciparum [1]): Active; Activity (Plasmodium berghei [2]): inactive; Activity (Plasmodium falciparum [4]): Active; Activity (Plasmodium berghei [5]): >0.1%
C1CCCC2(CC1)OOC1(CCCCCC1)OO2,> 100,39.4,
O=S(=O)(c1ccc(F)cc1)N1CCC2(CC1)OOC1(CCCC1)OO2,> 100,67,
O=S(=O)(CCCCl)N1CCC2(CC1)OOC1(CCCCC1)OO2,> 100,40.6,
Cc1ccc(S(=O)(=O)N2CCC3(CC2)OOC2(CCCC2)OO3)cc1,> 100,24.2,
O=S(=O)(Cc1ccccc1)N1CCC2(CC1)OOC1(CCCCCC1)OO2,> 100,64.7,
CCCS(=O)(=O)N1CCC2(CC1)OOC1(CCCC1)OO2,> 100,9450,
CCCS(=O)(=O)N1CCC2(CC1)OOC1(CCCCCC1)OO2,> 100,4.7,Activity (Plasmodium falciparum [1]): Active; Activity (Plasmodium berghei [2]): inactive; Activity (Plasmodium falciparum [4]): Active; Activity (Plasmodium berghei [5]): >0.1%
CCCS(=O)(=O)N1CCC2(CC1)OOC(C)(CC)OO2,> 100,23.3,
C[C@H]1[C@H](OC(=O)CCC(=O)O)O[C@@H]2O[C@@]3(C)CC[C@H]4[C@H](C)CC[C@@H]1[C@@]24OO3 [ARTESUNATE],> 100,3.3,
O=S(=O)(Cc1ccccc1)N1CCC2(CC1)OOC1(CCCC1)OO2,> 100,20.6,
CS(=O)(=O)N1CCC2(CC1)OOC1(CCN(S(C)(=O)=O)CC1)OO2,> 100,39.6,
O=S(=O)(CCCCl)N1CCC2(CC1)OOC1(CCCC1)OO2,> 100,8.43,Activity (Plasmodium falciparum [1]): Active; Activity (Plasmodium berghei [6]): Active; Activity (Plasmodium berghei [2]): Active; Activity (Plasmodium berghei [9]): Active; Activity (Plasmodium berghei [8]): <0.1%; Activity (Plasmodium berghei [10]): 100%; Activity (Plasmodium falciparum [4]): Active; Activity (Plasmodium berghei [11]): Active; Activity (Plasmodium berghei [5]): inactive

SMILES,CC50 (Huh-7) [µg/mL],IC50 (Plasmodium falciparum [3]) [nM],further results
CCCS(=O)(=O)N1CCC2(CC1)OOC(C)(c1ccccc1)OO2,> 100,129,
Cc1ccc(S(=O)(=O)N2CCC3(CC2)OOC2(CCCCCC2)OO3)cc1,> 100,55.3,
COc1ccc(S(=O)(=O)N2CCC3(CC2)OOC2(CCCCCC2)OO3)cc1,> 100,46.6,
C[C@@H]1CC[C@H]2[C@@H](C)C(=O)O[C@@H]3O[C@@]4(C)CC[C@@H]1[C@]32OO4 [ARTEMISININ],,4.74,
CCCS(=O)(=O)N1CCC2(CC1)OOC(C)(c1ccc(Cl)cc1)OO2,> 100,8360,
O=S(=O)(c1ccc(F)cc1)N1CCC2(CC1)OOC1(CCCCCC1)OO2,> 100,37.4,
CCCC1(C)OOC2(CCN(S(=O)(=O)CCC)CC2)OO1,> 100,10.9,Activity (Plasmodium falciparum [1]): Active; Activity (Plasmodium berghei [2]): inactive; Activity (Plasmodium falciparum [4]): Active; Activity (Plasmodium berghei [5]): >0.1%
CCCS(=O)(=O)N1CCC2(CC1)OOC(C)(C1CC1)OO2,> 100,60.2,
O=S(=O)(Cc1ccccc1)N1CCC2(CC1)OOC1(CCCCC1)OO2,> 100,49.4,
Cc1ccc(S(=O)(=O)N2CCC3(CC2)OOC2(CCCCC2)OO3)cc1,> 100,40.2,
CCCCS(=O)(=O)N1CCC2(CC1)OOC1(CCCCCC1)OO2,> 100,13.8,
CS(=O)(=O)N1CCC2(CC1)OOC1(CCCCC1)OO2,> 100,16.3,
O=S(=O)(c1ccc(Br)cc1F)N1CCC2(CC1)OOC1(CCCCC1)OO2,> 100,322,
COc1ccc(S(=O)(=O)N2CCC3(CC2)OOC2(CCCC2)OO3)cc1,> 100,25.3,
CCCS(=O)(=O)N1CCC2(CC1)OOC(C)(C(C)C)OO2,> 100,21.4,
CS(=O)(=O)N1CCC2(CC1)OOC1(CCCC1)OO2,> 100,41.9,
C[C@H]1[C@@H](O)O[C@@H]2O[C@@]3(C)CC[C@H]4[C@H](C)CC[C@@H]1[C@@]24OO3 [ARTENIMOL],> 100,0.7,
O=S(=O)(CCCCl)N1CCC2(CC1)OOC1(CCCCCC1)OO2,> 100,13,
CCCS(=O)(=O)N1CCC2(CC1)OOC1(CCCCC1)OO2,> 100,12.9,Activity (Plasmodium falciparum [1]): Active; Activity (Plasmodium berghei [2]): inactive; Activity (Plasmodium falciparum [4]): Active; Activity (Plasmodium berghei [5]): >0.1%
O=S(=O)(c1ccc(Br)cc1F)N1CCC2(CC1)OOC1(CCCC1)OO2,> 100,44.2,
CC(C)(N)CNC(=O)O[C@@H]1CCC[C@]2(C1)OOC1(O2)C2CC3CC(C2)CC1C3 (stereo partly drawn),,,EC50 (Plasmodium falciparum [12]): 1.8 nM; Activity (Plasmodium berghei [13]): 100%
CCS(=O)(=O)N1CCC2(CC1)OOC1(CCCCCC1)OO2,> 100,62.5,
